Among the test systems are COLO 205 colon; HCC-2998 colon; IGROV1 ovarian; NCI-H226 lung; NCI-H23 lung; NCI-H460 lung; RPMI-8226 leukemia; SK-OV-3 ovarian; SR leukemia; TK-10 renal.
Holding throughout (experiment): DTP human tumour cell line panel, 48 h

The structures appear in SMILES notation. Where “and” joins values, the source holds several entries; their conditions need not be identical. Identical values can stand only once.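 All cell lines were grown in 96-well plates and treated with compound for 48 hours. Here, GI50 denotes the concentration required for 50% inhibition of growth. TGI: total growth inhibition.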 Bounds are passed on as bounds.

As usually defined, the GI50 is the concentration at which growth is held to half of that of the control. As usually defined, the TGI is the concentration at which net growth stops. A lower TGI goes with more potent growth arrest.

`O=C(c1ccc2ccccc2c1)c1c(C(F)(F)F)n([O-])c2cc(C(F)(F)F)ccc2[n+]1=O`: the GI50 is 1.92 µM in the experiment with COLO 205 colon; 1.82 µM with HCC-2998 colon; 1.71 µM in the experiment with IGROV1 ovarian; 1.49 µM with NCI-H226 lung; 2.41 µM with NCI-H23 lung; 1.66 µM in the experiment with NCI-H460 lung. Further, the GI50 in the experiment on RPMI-8226 leukemia is 1.25 µM; in the experiment on SK-OV-3 ovarian, 1.79 µM; with SR leukemia it was 0.86 µM; in the experiment on TK-10 renal, 1.68 µM. Further, the TGI was 4.05 µM with COLO 205 colon; 3.37 µM with HCC-2998 colon; 3.36 µM with IGROV1 ovarian; 3.5 µM in the experiment on NCI-H226 lung; 5.87 µM with NCI-H23 lung; 3.44 µM in the experiment with NCI-H460 lung. The TGI amounted to 3.37 µM in the experiment with RPMI-8226 leukemia, 3.23 µM in the experiment with SK-OV-3 ovarian, 2.64 µM with SR leukemia and 3.06 µM in the experiment with TK-10 renal.
With `FC(F)(F)c1cc(NC(=S)N2c3ccccc3-n3cccc3C2c2cccnc2)cc(C(F)(F)F)c1` (stereo not drawn), the GI50 was 9.07 µM in the experiment with COLO 205 colon; 5.1 µM with HCC-2998 colon; 8.76 µM with IGROV1 ovarian; 22.7 µM in the experiment on NCI-H226 lung; 7.01 µM in the experiment on NCI-H23 lung; 10.5 µM in the experiment on NCI-H460 lung. For the same compound, the GI50 was 3.84 µM with RPMI-8226 leukemia, 11.9 µM in the experiment on SK-OV-3 ovarian, 4.64 µM with SR leukemia and 2.9 µM in the experiment on TK-10 renal. The total growth inhibition concentration (TGI) came to 21.6 µM in the experiment on COLO 205 colon; 19 µM with HCC-2998 colon; 22.9 µM in the experiment with IGROV1 ovarian; 54.7 µM with NCI-H226 lung; 20.6 µM with NCI-H23 lung; 23.4 µM with NCI-H460 lung. Also, the TGI with RPMI-8226 leukemia was 18.7 µM; in the experiment on SK-OV-3 ovarian, 27.5 µM; in the experiment on SR leukemia, 22.7 µM; in the experiment on TK-10 renal, 9.39 µM.
With `O=C1OC(c2ccc(Cl)cc2)=N/C1=C\c1ccccc1`, the total growth inhibition concentration (TGI) in the experiment on COLO 205 colon, in the experiment on HCC-2998 colon, in the experiment on IGROV1 ovarian, in the experiment with NCI-H226 lung, with NCI-H23 lung and in the experiment on NCI-H460 lung was more than 100 µM in each case. For the same compound, the TGI with RPMI-8226 leukemia, in the experiment on SK-OV-3 ovarian, with SR leukemia and with TK-10 renal was more than 100 µM in each case.
On to `CC1=C2[C@@H](CC1)[C@]1(C)O[C@@](C(C)C)(C[C@H]1OC(=O)CO)[C@H]2OC(=O)CCCc1ccccc1`, for which the GI50 was 6.52 µM in the experiment with COLO 205 colon; 12 µM in the experiment on HCC-2998 colon; 3.71 µM with IGROV1 ovarian; 6.04 µM with NCI-H226 lung; 11.3 µM with NCI-H23 lung; 9.1 µM in the experiment on NCI-H460 lung. Moreover, the GI50 in the experiment on RPMI-8226 leukemia is 3.08 µM; in the experiment with SK-OV-3 ovarian, 16.6 µM; with SR leukemia it was 11.3 µM; with TK-10 renal, 18.6 µM. For the same compound, the concentration for total growth inhibition (TGI) in the experiment on COLO 205 colon is 21.8 µM; in the experiment with HCC-2998 colon, 24.6 µM; in the experiment on IGROV1 ovarian, 14.1 µM; in the experiment with NCI-H226 lung it was 22.9 µM; with NCI-H23 lung it was 27.6 µM; in the experiment with NCI-H460 lung it was 22.9 µM. In addition, the concentration for total growth inhibition (TGI) was more than 100 µM in the experiment on RPMI-8226 leukemia, 30.6 µM in the experiment with SK-OV-3 ovarian, 36.6 µM in the experiment with SR leukemia and 32.8 µM in the experiment on TK-10 renal.
On to `CN(C)CCN(C)C(=O)c1cccc2cccc(C(=O)O)c12`, for which the concentration for total growth inhibition (TGI) in the experiment with COLO 205 colon, with HCC-2998 colon, with IGROV1 ovarian, in the experiment on NCI-H226 lung, with NCI-H23 lung and in the experiment with NCI-H460 lung was more than 100 µM throughout. In addition, the TGI in the experiment with RPMI-8226 leukemia, in the experiment with SK-OV-3 ovarian, in the experiment on SR leukemia and in the experiment with TK-10 renal was more than 100 µM throughout.
On to `CC1OC(CC(=O)O)Cc2c1c(O)c1c(O)cc(-c3cc(=O)c4c(=O)c5c(c(=O)c=4c3=O)CC(CC(=O)O)OC5C)c(O)c1c2O` (stereo not drawn), for which the GI50 with COLO 205 colon was 29.9 µM; in the experiment with HCC-2998 colon it was 18.9 µM; in the experiment on NCI-H226 lung it was 46.8 µM; in the experiment on NCI-H23 lung, 32.7 µM; in the experiment with NCI-H460 lung it was 35 µM; in the experiment on RPMI-8226 leukemia, 20.9 µM. For the same compound, the GI50 with SK-OV-3 ovarian is 48.8 µM; in the experiment with TK-10 renal it was 34 µM. Also, the TGI in the experiment with COLO 205 colon was 18.1 µM and 92.9 µM; in the experiment on HCC-2998 colon it was > 73.9 µM and 55.2 µM; with IGROV1 ovarian, more than 86.3 µM; with NCI-H226 lung, more than 75.4 µM; with NCI-H23 lung, 33.9 µM; in the experiment with NCI-H460 lung, more than 100 µM. In addition, the concentration for total growth inhibition (TGI) in the experiment with RPMI-8226 leukemia is 81.6 µM and 68.7 µM; with SK-OV-3 ovarian, more than 100 µM; in the experiment on SR leukemia it was 53.9 µM; in the experiment on TK-10 renal, more than 93 µM.
Regarding `Fc1ccc(-c2ncn(CCCN3CCOCC3)c2-c2ccncc2)cc1`, the GI50 with COLO 205 colon, in the experiment on HCC-2998 colon, in the experiment on IGROV1 ovarian, in the experiment with NCI-H226 lung, in the experiment with NCI-H23 lung and with NCI-H460 lung was more than 25 µM in each case. The GI50 with RPMI-8226 leukemia, in the experiment on SK-OV-3 ovarian, with SR leukemia and in the experiment with TK-10 renal was more than 25 µM each time. Also, the TGI with COLO 205 colon, in the experiment with HCC-2998 colon, in the experiment on IGROV1 ovarian, with NCI-H226 lung, with NCI-H23 lung and in the experiment on NCI-H460 lung was more than 25 µM each time. The TGI in the experiment on RPMI-8226 leukemia, in the experiment on SK-OV-3 ovarian, with SR leukemia and in the experiment with TK-10 renal was more than 25 µM throughout.
For `FC(F)(F)c1nc(SCc2ccc(Cl)cc2)n[nH]1`, the concentration for total growth inhibition (TGI) in the experiment on COLO 205 colon, with HCC-2998 colon, in the experiment with IGROV1 ovarian, in the experiment on NCI-H226 lung, in the experiment on NCI-H23 lung and in the experiment on NCI-H460 lung was more than 100 µM throughout. Also, the concentration for total growth inhibition (TGI) in the experiment with RPMI-8226 leukemia, in the experiment on SK-OV-3 ovarian, in the experiment with SR leukemia and with TK-10 renal was more than 100 µM throughout.
